Two compounds from patent publication US20090149482A1, “STEREOCHEMICALLY DEFINED DIPEPTIDE ESTERS OF ANTIVIRAL AGENTS FOR ENHANCED OCULAR TREATMENT” (priority 2001, published 2009) can be followed below.

Converted amounts (≈) assume the structure as drawn. Where two headings read alike, the source gives them in different places.

Series [1] is described as follows: in vitro. The conditions noted are these: human, Caco-2, pH 7.4.
The test system of series [2] is Caco-2 cell suspension. Particulars: Caco-2 cell suspension at pH 7.4; * = no intact drug detected during the experiment.
Series [3] concerns the target T1, hPEPT1 (Homo sapiens, UniProt P46059).
T1 construct: endogenous in cells; host or cells: Caco-2 (human colon carcinoma, ATCC)
T1 sequence (P46059 1-708): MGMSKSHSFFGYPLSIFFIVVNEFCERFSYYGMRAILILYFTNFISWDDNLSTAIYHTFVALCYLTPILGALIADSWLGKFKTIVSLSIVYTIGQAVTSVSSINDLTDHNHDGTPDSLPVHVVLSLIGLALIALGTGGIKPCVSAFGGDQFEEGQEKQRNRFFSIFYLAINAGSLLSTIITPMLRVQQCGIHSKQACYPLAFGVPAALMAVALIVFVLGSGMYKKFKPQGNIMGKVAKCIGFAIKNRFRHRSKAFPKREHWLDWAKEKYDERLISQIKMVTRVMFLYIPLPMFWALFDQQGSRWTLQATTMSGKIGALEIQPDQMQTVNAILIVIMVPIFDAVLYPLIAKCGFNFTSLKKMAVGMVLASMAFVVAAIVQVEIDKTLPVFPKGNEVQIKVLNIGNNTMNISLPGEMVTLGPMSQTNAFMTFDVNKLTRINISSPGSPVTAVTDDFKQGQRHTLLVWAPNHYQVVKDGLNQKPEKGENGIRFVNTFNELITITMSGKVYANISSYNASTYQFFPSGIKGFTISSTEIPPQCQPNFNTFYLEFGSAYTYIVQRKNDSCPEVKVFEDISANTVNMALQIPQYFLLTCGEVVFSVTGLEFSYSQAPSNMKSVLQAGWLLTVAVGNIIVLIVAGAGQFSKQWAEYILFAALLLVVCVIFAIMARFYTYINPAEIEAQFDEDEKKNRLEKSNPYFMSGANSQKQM
Kind of series: [3H] Glycylsarcosine uptake and its inhibition in Caco-2 cells (affinity towards peptide transporter). Format: cell-based. Particulars: for Ki: read-out: Ki. An excerpt: Materials: [^3H] Glycylsarcosine (Gly-Sar; 4 Ci/mmol) was purchased from Moravek Biochemicals (Brea, Calif.) and [^14C] Mannitol (50 mCi/mmol) was supplied by Amersham (Piscataway, N.J.). Human colon carcinoma derived Caco-2 cells were obtained from American Type Culture Collection (ATCC, Rockville, Md.). The growth medium, Dulbecco's modified Eagle Medium was obtained from Life Technologies (Grand Island, N.Y.). […] Fetal bovine serum (FBS) was purchased from JRH Biosciences (Lenexa, Kans.). Culture flasks (75 cm^2 growth area), polyester Transwells® (pore size 0.4 Cm with diameter 6.5 mm) and polyester membranes (pore size 0.4 Cm) were procured from Costar (Bedford, Mass.). The buffer components and solvents were obtained from Fisher Scientific (St. Louis, Mo.). All the di-peptide esters of acyclovir were custom synthesized in our laboratory. […] Cell Culture: All cultures were maintained in humidified incubator at 37° C. with a 5% carbon dioxide in air atmosphere. Caco-2 cells were obtained at passage 25 from American Type Culture Collection (ATCC) and grown in plastic tissue culture flasks. […] When 80% confluent, these cells were removed by treating them with Trypsin/EDTA and plated at a density of 100,000 cells/cm^2 on collagen coated plastic dishes containing clear polyester membranes (0.636 cm^2, […]) or 12-well tissue culture treated plastic plates. Cells were then grown in medium containing 10% FBS (heat-inactivated). […] [^14C] […] Metabolism studies in Cell Suspensions: Confluent Caco-2 cells, grown in tissue culture flasks were isolated with the aid of mechanical scraper and washed thrice with DPBS. […] One-hundred micro-liters of samples were withdrawn at predetermined time intervals and the sample was purified by precipitating the cellular proteins into the organic solvent mixture and stored at −80° C. until further analysis. The protein content of the cell suspension was determined by the method of Bradford using bovine serum albumin as the standard (BioRad protein estimation kit, Hercules, Calif.). […] Transport studies: Transport experiments were done using Side-Bi-Side™ diffusion cells (type VSC-1, Crown Glass Company Inc.) and Transwell® inserts. Prior to the experiment with Gly-Sar, Caco-2 cell monolayers grown on the clear polyester membranes and Transwell® inserts were washed with DPBS (pH 6.0) and incubated at 37° C. Freshly prepared drug solutions in DPBS (pH 6.0) was placed in the donor chamber and the receiver chamber was filled with DPBS. The volumes of donor and receptor chambers were 3 ml each for Side-Bi-Side™ diffusion cells and 0.5 ml and 1.5 ml respectively for Transwell® inserts. […] The samples were stored at −80° C. until analyzed HPLC. All experiments were performed at 37° C. […] The concentration dependent uptake of glycylsarcosine was studied using [^3H] […] For Dixon plots and Dose Response studies [^3H] […] Following incubation, the cell monolayers were washed three times with ice-cold HEPES buffer to terminate the uptake experiment. After the washings cells were lysed overnight using 1 ml 0.1% (w/v) Triton X-100 in 0.3 N NaOH at room temperature. Aliquots (500 μl) from each well were then transferred to scintillation vials containing 5 ml scintillation cocktail (Fisher Scientific, Fairlawn, N.J.). […] The amount of protein in the cell lysate was measured by the BioRad protein estimation kit using bovine serum albumin as standard (BioRad Protein estimation Kit, Hercules, Calif.). Analytical Procedures: All samples were assayed using HPLC. […] The column used was a C18 Luna column 4.6×250 mm (Phenomenex). The mobile phase consisted of a mixture of buffer and an organic modifier. The percentage of organic phase was varied in order to elute compounds of interest.
A general note: Caco-2 monolayers are a common model of the intestinal barrier.

Series [4] deals with oligopeptide transporter on the rabbit cornea. Particulars: +10 mM of the ester.
Series [5] in a line: Corneal permeation across freshly excised rabbit cornea. Particulars: New Zealand albino.
The test system of series [6] is EBV. The experiment in a line: In vitro antiviral screening, VCA Elisa. Format: cell-based, epstein-barr virus. Particulars: human gammaherpesvirus 4; EBV, VCA Elisa.
For series [7], the system named is HSV-2. Kind of series: In vitro antiviral screening, CPE inhibition in HFF cells. The conditions noted are these: Human alphaherpesvirus 2, HFF; HSV-2, CPE Inhibition. The format is cell-based, herpes simplex virus 2.
Series [8] is described as follows: in vitro. Particulars: New Zealand albino, rabbit.
The nature of series [9]: Aqueous solubility. Format: physicochemical.
The subject of series [10] is rabbit corneal cell line (SIRC). The conditions noted are these: SIRC cells.
For series [11] the following is noted: New Zealand albino, rabbit.
Series [12] deals with HSV-1. The experiment in a line: In vitro antiviral screening, CPE inhibition in HFF cells. The format is cell-based, herpes simplex virus 1. Particulars: Human alphaherpesvirus 1, HFF.

What is called half-life is the time needed for the level to fall by half in the phase considered. High values mean slow loss, low ones fast loss. Broadly, the Ki is a measure of affinity in units of concentration, obtained from inhibition or displacement. As usually defined, the Papp is a coefficient for how fast a substance crosses the barrier. In the case of `CC(C)C(NC(=O)C(N)Cc1ccc(O)cc1)C(=O)OCCOCn1cnc2c(=O)[nH]c(N)nc21` (stereo not drawn) [Tyr-Val-ACV], the “hydrolytic rate constant k” value reads like this: (Aqueous Humor) 2.3 (±0.11) k × 10^3 min^−1 mg^−1 protein; (Cornea homogenate) 4.9 (±0.69) k × 10^3 min^−1 mg^−1 protein; (Iris-Ciliary Body homogenate) 5.3 (±0.74) k × 10^3 min^−1 mg^−1 protein; (Lens homogenate) 3.1 (±0.63) k × 10^3 min^−1 mg^−1 protein; (Vitreous Humor) 1.7 (±0.56) k × 10^3 min^−1 mg^−1 protein. In series [1], the half-life at 0.2 mM came to 6.9 ± 0.3 min. Moreover, the “10^2 × kobs” value in [2] amounted to 10.1 ± 0.46 min^−1mg^−1 protein. In addition, the “Vmax of Gly-Sar uptake in presence of the drug” value in series [3] (Gly-Sar with drug (10 mM), Lineweaver-Burk) turned out to be 0.091 ± 0.07 µmol/min/mg. In addition, the Ki in series [3] (Lineweaver-Burk) is 4110 ± 320 µM; in series [3] (Michaelis-Menten), 4960 ± 970 µM. The “Papp (% Control) of [3H] Val-ACV” value in series [4] is 31.1 (±9.5) % Control. In addition, in series [5], the Papp at 3 h turned out to be 7.19 ×10⁻⁶ cm/s.

For orientation: solubility means the concentration that dissolves in the medium under given conditions. As for `Nc1nc2c(ncn2COCCO)c(=O)[nH]1` [ACV, 2-amino-1,9-dihydro-9-[(2-hydroxyethoxy)methyl]-6H-purin-6-one], the EC50 in series [6] was determined as 7.5 µM; in [7], 6.6 µM; in series [12] (read-out: EC50 (concentration required to inhibit viral cytopathogenicity by 50%), HSV-1, CPE Inhibition) it was 7.1 µM; in series [12] (HSV-1, running text, read-out: EC50 against HSV-1) it was 7.1 µM. For the same compound, the Papp in series [8] is 4.24 ± 1.41 ×10⁻⁶ cm/s; in series [11], 4.24 ×10⁻⁶ cm/s. Besides, the solubility was found to be 2500 µg/mL (≈ 11.1 mM) in [9] (25° C.) and 2000 µg/mL (≈ 8.88 mM) in series [9] (aqueous medium, 37° C., read-out: saturable solubility). Further, the percent survival in [10] (0.025 mM) is listed as 94.71%; in [10] (0.1 mM), 89.41%; in [10] (0.5 mM) it was 69.81%; in [10] (1 mM), 57.37%; in series [10] (5 mM), 49.12%. For the same compound, in [10] (5 mM), the “% viable cells” value came out at 49.1±4.2%. Further, the “effect on the uptake of [3H] Gly-Sar” value in [3] (Caco-2, pH 6.0, 10 minutes) is “did not inhibit”.
